The compounds below were run against MCH receptor (Homo sapiens, UniProt Q99705) (assay: High throughput functional screening FLIPR/FDSS6000: inhibition of MCH-evoked intracellular Ca2+ changes). Conditions: class by percent of control at 10^-7 M or IC50.
Assay type: cell-based
How it was run: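 In a kinetic calcium-flux format, compounds were tested at various concentrations against 50 nM MCH. Fluo4-loaded cells expressing a constitutively active, non-endogenous receptor were imaged at 488/530 nm for 290 s after agonist addition.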

Question: For `CC(=O)c1ccc(NC(=O)NC[C@H]2CC[C@@H](Nc3nc(N(C)C)c4ccccc4n3)CC2)cc1` [compound 407], which class is on record?
Answer: Its class is 3 (Class 3: The value of percent of control at 10^−7 M was more than 60% or the value of IC50 was more than 200 nM.).

Question: With `CN(C)c1nc(N[C@H]2CC[C@@H](CNC(=O)NC(=O)c3ccccc3)CC2)nc2ccccc12` [compound 408] as the compound, how does the class read?
Answer: Its class is 3 (Class 3: The value of percent of control at 10^−7 M was more than 60% or the value of IC50 was more than 200 nM.).

Question: With `CN(C)c1nc(N[C@H]2CC[C@@H](CNC(=O)Nc3cc(C(F)(F)F)cc(C(F)(F)F)c3)CC2)nc2ccccc12` [compound 409] as the compound, how does the class read?
Answer: The class was 3 (Class 3: The value of percent of control at 10^−7 M was more than 60% or the value of IC50 was more than 200 nM.).

Question: `CN(C)c1nc(N[C@H]2CC[C@@H](CNC(=O)NCc3ccccc3)CC2)nc2ccccc12` [compound 410] was tested. Which class did it give?
Answer: Its class is 3 (Class 3: The value of percent of control at 10^−7 M was more than 60% or the value of IC50 was more than 200 nM.).

Question: For `CN(C)c1nc(N[C@H]2CC[C@@H](CNC(=O)Nc3ccccc3Br)CC2)nc2ccccc12` [compound 411, N-(2-bromophenyl)-N′-[(cis-4-{[4-(dimethylamino)quinazolin-2-yl]amino}cyclohexyl)methyl]urea], which class is on record?
Answer: The class was 2 (Class 2: The value of percent of control at 10^−7 M was from 40% to 60% or the value of IC50 was from 50 nM to 200 nM.).

Question: `CN(C)c1nc(N[C@H]2CC[C@@H](CNC(=O)Nc3ccccc3-c3ccccc3)CC2)nc2ccccc12` [compound 412, N-biphenyl-2-yl-N′-[(cis-4-{[4-(dimethylamino)quinazolin-2-yl]amino}cyclohexyl)methyl]urea] was tested. Which class did it give?
Answer: The class was 2 (Class 2: The value of percent of control at 10^−7 M was from 40% to 60% or the value of IC50 was from 50 nM to 200 nM.).

Question: `CN(C)c1nc(N[C@H]2CC[C@@H](CNC(=O)Nc3ccc(Br)cc3)CC2)nc2ccccc12` [compound 413] was tested. Which class did it give?
Answer: The class was 3 (Class 3: The value of percent of control at 10^−7 M was more than 60% or the value of IC50 was more than 200 nM.).

Question: Which class does the source give for `CCCCNC(=O)NC[C@H]1CC[C@@H](Nc2nc(N(C)C)c3ccccc3n2)CC1` [compound 414, N-butyl-N′-[(cis-4-{[4-(dimethylamino)quinazolin-2-yl]amino}cyclohexyl)methyl]urea] here?
Answer: The class was 2 (Class 2: The value of percent of control at 10^−7 M was from 40% to 60% or the value of IC50 was from 50 nM to 200 nM.).

Question: How did the class turn out when `CN(C)c1nc(N[C@H]2CC[C@@H](CNC(=O)Nc3cccc(Cl)c3)CC2)nc2ccccc12` [compound 415, N-(3-chlorophenyl)-N′-[(cis-4-{[4-(dimethylamino)quinazolin-2-yl]amino}cyclohexyl)methyl]urea] was run?
Answer: The class was 2 (Class 2: The value of percent of control at 10^−7 M was from 40% to 60% or the value of IC50 was from 50 nM to 200 nM.).

Question: Which class does the source give for `CN(C)c1nc(N[C@H]2CC[C@@H](CNC(=O)Nc3ccc(Cl)cc3)CC2)nc2ccccc12` [compound 416] here?
Answer: Its class is 3 (Class 3: The value of percent of control at 10^−7 M was more than 60% or the value of IC50 was more than 200 nM.).

Question: `CN(C)c1nc(N[C@H]2CC[C@@H](CNC(=O)NC3CCCCC3)CC2)nc2ccccc12` [compound 417, N-cyclohexyl-N′-[(cis-4-{[4-(dimethylamino)quinazolin-2-yl]amino}cyclohexyl)methyl]urea] was tested. Which class did it give?
Answer: Its class is 2 (Class 2: The value of percent of control at 10^−7 M was from 40% to 60% or the value of IC50 was from 50 nM to 200 nM.).

Question: `CN(C)c1nc(N[C@H]2CC[C@@H](CNC(=O)Nc3cccc(C#N)c3)CC2)nc2ccccc12` [compound 418, N-(3-cyanophenyl)-N′-[(cis-4-{[4-(dimethylamino)quinazolin-2-yl]amino}cyclohexyl)methyl]urea] was tested. Which class did it give?
Answer: The class was 2 (Class 2: The value of percent of control at 10^−7 M was from 40% to 60% or the value of IC50 was from 50 nM to 200 nM.).

Question: How did the class turn out when `CN(C)c1nc(N[C@H]2CC[C@@H](CNC(=O)Nc3ccccc3Cl)CC2)nc2ccccc12` [compound 419, N-(2-chlorophenyl)-N′-[(cis-4-{[4-(dimethylamino)quinazolin-2-yl]amino}cyclohexyl)methyl]urea] was run?
Answer: The class was 1 (Class 1: The value of percent of control at 10^−7 M was less than 40% or the value of IC50 was less than 50 nM.).

Question: For `Cc1cccc(C)c1NC(=O)NC[C@H]1CC[C@@H](Nc2nc(N(C)C)c3ccccc3n2)CC1` [compound 420, N-[(cis-4-{[4-(dimethylamino)quinazolin-2-yl]amino}cyclohexyl)methyl]-N′-(2,6-dimethylphenyl)urea], which class is on record?
Answer: Its class is 1 (Class 1: The value of percent of control at 10^−7 M was less than 40% or the value of IC50 was less than 50 nM.).

Question: How did the class turn out when `CN(C)c1nc(N[C@H]2CC[C@@H](CNC(=O)Nc3ccc(Cl)c(Cl)c3)CC2)nc2ccccc12` [compound 421, N-(3,4-dichlorophenyl)-N′-[(cis-4-{[4-(dimethylamino)quinazolin-2-yl]amino}cyclohexyl)methyl]urea] was run?
Answer: Its class is 2 (Class 2: The value of percent of control at 10^−7 M was from 40% to 60% or the value of IC50 was from 50 nM to 200 nM.).

Question: For `CN(C)c1nc(N[C@H]2CC[C@@H](CNC(=O)Nc3ccc(F)cc3F)CC2)nc2ccccc12` [compound 422, N-(2,4-difluorophenyl)-N′-[(cis-4-{[4-(dimethylamino)quinazolin-2-yl]amino}cyclohexyl)methyl]urea], which class is on record?
Answer: Its class is 1 (Class 1: The value of percent of control at 10^−7 M was less than 40% or the value of IC50 was less than 50 nM.).

Question: For `CN(C)c1nc(N[C@H]2CC[C@@H](CNC(=O)Nc3ccc(Cl)cc3Cl)CC2)nc2ccccc12` [compound 423, N-(2,4-dichlorophenyl)-N′-[(cis-4-{[4-(dimethylamino)quinazolin-2-yl]amino}cyclohexyl)methyl]urea], which class is on record?
Answer: The class was 2 (Class 2: The value of percent of control at 10^−7 M was from 40% to 60% or the value of IC50 was from 50 nM to 200 nM.).

Question: For `CN(C)c1nc(N[C@H]2CC[C@@H](CNC(=O)Nc3cc(Cl)cc(Cl)c3)CC2)nc2ccccc12` [compound 424, N-(3,5-dichlorophenyl)-N′-[(cis-4-{[4-(dimethylamino)quinazolin-2-yl]amino}cyclohexyl)methyl]urea], which class is on record?
Answer: Its class is 1 (Class 1: The value of percent of control at 10^−7 M was less than 40% or the value of IC50 was less than 50 nM.).

Question: `CN(C)c1nc(N[C@H]2CC[C@@H](CNC(=O)Nc3cccc(Cl)c3Cl)CC2)nc2ccccc12` [compound 425, N-(2,3-dichlorophenyl)-N′-[(cis-4-{[4-(dimethylamino)quinazolin-2-yl]amino}cyclohexyl)methyl]urea] was tested. Which class did it give?
Answer: Its class is 1 (Class 1: The value of percent of control at 10^−7 M was less than 40% or the value of IC50 was less than 50 nM.).

Question: With `CN(C)c1nc(N[C@H]2CC[C@@H](CNC(=O)Nc3c(F)cccc3F)CC2)nc2ccccc12` [compound 426, N-(2,6-difluorophenyl)-N′-[(cis-4-{[4-(dimethylamino)quinazolin-2-yl]amino}cyclohexyl)methyl]urea] as the compound, how does the class read?
Answer: Its class is 2 (Class 2: The value of percent of control at 10^−7 M was from 40% to 60% or the value of IC50 was from 50 nM to 200 nM.).

Question: `CN(C)c1nc(N[C@H]2CC[C@@H](CNC(=O)Nc3cc(Cl)ccc3Cl)CC2)nc2ccccc12` [compound 427] was tested. Which class did it give?
Answer: The class was 3 (Class 3: The value of percent of control at 10^−7 M was more than 60% or the value of IC50 was more than 200 nM.).

Question: `Cc1cccc(NC(=O)NC[C@H]2CC[C@@H](Nc3nc(N(C)C)c4ccccc4n3)CC2)c1C` [compound 428, N-[(cis-4-{[4-(dimethylamino)quinazolin-2-yl]amino}cyclohexyl)methyl]-N′-(2,3-dimethylphenyl)urea] was tested. Which class did it give?
Answer: The class was 1 (Class 1: The value of percent of control at 10^−7 M was less than 40% or the value of IC50 was less than 50 nM.).

Question: With `CCOC(=O)CNC(=O)NC[C@H]1CC[C@@H](Nc2nc(N(C)C)c3ccccc3n2)CC1` [compound 429] as the compound, how does the class read?
Answer: Its class is 3 (Class 3: The value of percent of control at 10^−7 M was more than 60% or the value of IC50 was more than 200 nM.).

Question: For `CCOC(=O)c1cccc(NC(=O)NC[C@H]2CC[C@@H](Nc3nc(N(C)C)c4ccccc4n3)CC2)c1` [compound 430], which class is on record?
Answer: Its class is 3 (Class 3: The value of percent of control at 10^−7 M was more than 60% or the value of IC50 was more than 200 nM.).

Question: How did the class turn out when `CCOC(=O)c1ccc(NC(=O)NC[C@H]2CC[C@@H](Nc3nc(N(C)C)c4ccccc4n3)CC2)cc1` [compound 431] was run?
Answer: The class was 3 (Class 3: The value of percent of control at 10^−7 M was more than 60% or the value of IC50 was more than 200 nM.).

Question: `CCc1ccc(NC(=O)NC[C@H]2CC[C@@H](Nc3nc(N(C)C)c4ccccc4n3)CC2)cc1` [compound 432, N-[(cis-4-{[4-(dimethylamino)quinazolin-2-yl]amino}cyclohexyl)methyl]-N′-(4-ethylphenyl)urea] was tested. Which class did it give?
Answer: The class was 2 (Class 2: The value of percent of control at 10^−7 M was from 40% to 60% or the value of IC50 was from 50 nM to 200 nM.).

Question: With `CCNC(=O)NC[C@H]1CC[C@@H](Nc2nc(N(C)C)c3ccccc3n2)CC1` [compound 433] as the compound, how does the class read?
Answer: The class was 3 (Class 3: The value of percent of control at 10^−7 M was more than 60% or the value of IC50 was more than 200 nM.).

Question: `CCc1cccc(C)c1NC(=O)NC[C@H]1CC[C@@H](Nc2nc(N(C)C)c3ccccc3n2)CC1` [compound 434, N-[(cis-4-{[4-(dimethylamino)quinazolin-2-yl]amino}cyclohexyl)methyl]-N′-(2-ethyl-6-methylphenyl)urea] was tested. Which class did it give?
Answer: Its class is 1 (Class 1: The value of percent of control at 10^−7 M was less than 40% or the value of IC50 was less than 50 nM.).

Question: `CN(C)c1nc(N[C@H]2CC[C@@H](CNC(=O)Nc3ccc(F)c([N+](=O)[O-])c3)CC2)nc2ccccc12` [compound 436] was tested. Which class did it give?
Answer: The class was 3 (Class 3: The value of percent of control at 10^−7 M was more than 60% or the value of IC50 was more than 200 nM.).

Question: Which class does the source give for `CN(C)c1nc(N[C@H]2CC[C@@H](CNC(=O)Nc3ccc(F)cc3)CC2)nc2ccccc12` [compound 437, N-[(cis-4-{[4-(dimethylamino)quinazolin-2-yl]amino}cyclohexyl)methyl]-N′-(4-fluorophenyl)urea] here?
Answer: The class was 1 (Class 1: The value of percent of control at 10^−7 M was less than 40% or the value of IC50 was less than 50 nM.).

— US20070010671A1, “Novel quinazoline derivatives and methods of treatment related to the use thereof” (priority 2003, published 2007)
